Legend:
hKDR = target: T1, hKDR (Homo sapiens, UniProt P35968); test: Cerep LANCE kinase assay hKDR (S1 assay 32); type: biochemical; conditions: assay number 32
T1 construct: purchased Cerep (LANCE kinase assay platform, contract assay)

hJAK2 = target: T2, hJAK2 (Homo sapiens, UniProt O60674); test: Cerep LANCE kinase assay hJAK2 (S1 assay 33); type: biochemical; conditions: assay number 33
T2 construct: purchased Cerep (LANCE kinase assay platform, contract assay)

HeLa cells = test: cells; type: cell-based; conditions: for Hela CellCycMod PI 2N IC50/EC50: assay number 14; for Hela CellCycMod PI S Phase IC50/EC50: assay number 15; for Hela CellCycMod PI 4N IC50/EC50: assay number 16; for Hela CellCycMod PI MI IC50/EC50: assay number 17; for Hela CellCycMod PI Cell Number IC50/EC50: assay number 18
[1] = system: alkaline phosphatase (ALP) activity in C2C12 cells; type: cell-based; conditions: assay number 6; concentration response
hGSK3b = target: T3, hGSK3b (Homo sapiens, UniProt P49841); test: Cerep LANCE kinase assay hGSK3b (S1 assay 34); type: biochemical; conditions: assay number 34
T3 construct: purchased Cerep (LANCE kinase assay platform, contract assay)

hp70S6K1 (RPS6KB1) = target: T4, hp70S6K1 (RPS6KB1) (Homo sapiens, UniProt P23443); test: Cerep LANCE kinase assay hp70S6K1 (S1 assay 31); type: biochemical; conditions: assay number 31
T4 construct: purchased Cerep (LANCE kinase assay platform, contract assay)

[2] = system: endothelial tube formation in co-cultures of ECFCs and ADSCs treated with VEGF; test: cells; type: cell-based, human
hFLT3 = target: T5, hFLT3 (Homo sapiens, UniProt P36888); test: Cerep LANCE kinase assay hFLT3 (S1 assay 35); type: biochemical; conditions: assay number 35
T5 construct: purchased Cerep (LANCE kinase assay platform, contract assay)

[3] = system: ECFC/ADSC co-culture cell nuclei number
[4] = system: nuclear β-catenin in C2C12 cells; test: cells; type: cell-based; conditions: assay number 5; concentration response

T2 sequence (O60674 whole entry): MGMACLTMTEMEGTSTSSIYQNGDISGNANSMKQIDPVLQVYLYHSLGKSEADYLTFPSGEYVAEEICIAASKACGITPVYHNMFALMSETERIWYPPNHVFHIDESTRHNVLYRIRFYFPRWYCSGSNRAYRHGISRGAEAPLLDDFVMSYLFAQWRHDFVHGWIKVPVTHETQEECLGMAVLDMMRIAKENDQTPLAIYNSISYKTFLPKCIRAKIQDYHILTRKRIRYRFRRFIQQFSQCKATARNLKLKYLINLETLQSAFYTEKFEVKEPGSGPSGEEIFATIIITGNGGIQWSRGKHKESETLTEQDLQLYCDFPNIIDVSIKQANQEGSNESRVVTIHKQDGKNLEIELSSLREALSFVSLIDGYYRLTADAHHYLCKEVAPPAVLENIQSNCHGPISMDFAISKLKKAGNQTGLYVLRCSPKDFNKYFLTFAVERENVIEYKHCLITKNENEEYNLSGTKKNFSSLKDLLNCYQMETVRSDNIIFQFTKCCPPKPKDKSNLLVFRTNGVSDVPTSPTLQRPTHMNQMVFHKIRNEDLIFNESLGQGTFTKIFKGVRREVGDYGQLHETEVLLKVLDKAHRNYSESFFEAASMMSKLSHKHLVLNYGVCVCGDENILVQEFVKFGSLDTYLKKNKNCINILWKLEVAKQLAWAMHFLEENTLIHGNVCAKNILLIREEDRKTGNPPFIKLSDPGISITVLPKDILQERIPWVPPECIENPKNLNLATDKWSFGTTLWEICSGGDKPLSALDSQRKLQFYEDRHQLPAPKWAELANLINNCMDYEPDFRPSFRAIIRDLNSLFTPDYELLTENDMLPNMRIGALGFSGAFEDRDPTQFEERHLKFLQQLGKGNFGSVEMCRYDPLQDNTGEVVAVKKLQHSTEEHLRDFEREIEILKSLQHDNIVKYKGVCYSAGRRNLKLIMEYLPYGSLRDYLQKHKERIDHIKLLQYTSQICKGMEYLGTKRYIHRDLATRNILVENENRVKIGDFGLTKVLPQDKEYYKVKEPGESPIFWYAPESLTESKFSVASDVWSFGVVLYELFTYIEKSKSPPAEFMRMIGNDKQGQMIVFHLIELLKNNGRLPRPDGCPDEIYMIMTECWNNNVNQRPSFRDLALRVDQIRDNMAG
T5 sequence (P36888 27-993): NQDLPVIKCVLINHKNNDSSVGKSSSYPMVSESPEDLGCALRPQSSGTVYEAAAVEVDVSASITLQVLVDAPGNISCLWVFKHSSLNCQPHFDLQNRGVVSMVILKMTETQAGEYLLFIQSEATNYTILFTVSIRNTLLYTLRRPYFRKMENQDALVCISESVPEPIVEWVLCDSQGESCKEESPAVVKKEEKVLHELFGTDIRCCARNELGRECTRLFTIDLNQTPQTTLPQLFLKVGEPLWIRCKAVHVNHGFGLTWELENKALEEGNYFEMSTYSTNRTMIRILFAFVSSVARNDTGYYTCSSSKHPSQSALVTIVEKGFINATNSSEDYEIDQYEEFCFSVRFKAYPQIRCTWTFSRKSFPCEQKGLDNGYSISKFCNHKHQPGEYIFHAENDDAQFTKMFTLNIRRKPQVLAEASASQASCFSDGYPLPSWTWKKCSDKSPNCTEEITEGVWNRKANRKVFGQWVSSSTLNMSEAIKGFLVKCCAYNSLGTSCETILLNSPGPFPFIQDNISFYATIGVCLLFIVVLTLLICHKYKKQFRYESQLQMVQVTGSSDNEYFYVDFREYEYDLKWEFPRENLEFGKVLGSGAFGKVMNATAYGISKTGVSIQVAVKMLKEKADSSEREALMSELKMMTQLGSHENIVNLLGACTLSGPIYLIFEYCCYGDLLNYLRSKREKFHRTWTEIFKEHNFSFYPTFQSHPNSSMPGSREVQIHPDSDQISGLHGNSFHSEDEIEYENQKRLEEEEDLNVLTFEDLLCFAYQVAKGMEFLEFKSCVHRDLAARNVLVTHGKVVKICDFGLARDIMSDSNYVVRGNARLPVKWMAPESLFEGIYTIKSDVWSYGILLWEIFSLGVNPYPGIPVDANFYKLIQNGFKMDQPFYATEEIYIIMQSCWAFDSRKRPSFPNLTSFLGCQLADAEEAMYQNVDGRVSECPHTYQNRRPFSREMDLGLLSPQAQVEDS
T1 sequence (P35968 20-1356): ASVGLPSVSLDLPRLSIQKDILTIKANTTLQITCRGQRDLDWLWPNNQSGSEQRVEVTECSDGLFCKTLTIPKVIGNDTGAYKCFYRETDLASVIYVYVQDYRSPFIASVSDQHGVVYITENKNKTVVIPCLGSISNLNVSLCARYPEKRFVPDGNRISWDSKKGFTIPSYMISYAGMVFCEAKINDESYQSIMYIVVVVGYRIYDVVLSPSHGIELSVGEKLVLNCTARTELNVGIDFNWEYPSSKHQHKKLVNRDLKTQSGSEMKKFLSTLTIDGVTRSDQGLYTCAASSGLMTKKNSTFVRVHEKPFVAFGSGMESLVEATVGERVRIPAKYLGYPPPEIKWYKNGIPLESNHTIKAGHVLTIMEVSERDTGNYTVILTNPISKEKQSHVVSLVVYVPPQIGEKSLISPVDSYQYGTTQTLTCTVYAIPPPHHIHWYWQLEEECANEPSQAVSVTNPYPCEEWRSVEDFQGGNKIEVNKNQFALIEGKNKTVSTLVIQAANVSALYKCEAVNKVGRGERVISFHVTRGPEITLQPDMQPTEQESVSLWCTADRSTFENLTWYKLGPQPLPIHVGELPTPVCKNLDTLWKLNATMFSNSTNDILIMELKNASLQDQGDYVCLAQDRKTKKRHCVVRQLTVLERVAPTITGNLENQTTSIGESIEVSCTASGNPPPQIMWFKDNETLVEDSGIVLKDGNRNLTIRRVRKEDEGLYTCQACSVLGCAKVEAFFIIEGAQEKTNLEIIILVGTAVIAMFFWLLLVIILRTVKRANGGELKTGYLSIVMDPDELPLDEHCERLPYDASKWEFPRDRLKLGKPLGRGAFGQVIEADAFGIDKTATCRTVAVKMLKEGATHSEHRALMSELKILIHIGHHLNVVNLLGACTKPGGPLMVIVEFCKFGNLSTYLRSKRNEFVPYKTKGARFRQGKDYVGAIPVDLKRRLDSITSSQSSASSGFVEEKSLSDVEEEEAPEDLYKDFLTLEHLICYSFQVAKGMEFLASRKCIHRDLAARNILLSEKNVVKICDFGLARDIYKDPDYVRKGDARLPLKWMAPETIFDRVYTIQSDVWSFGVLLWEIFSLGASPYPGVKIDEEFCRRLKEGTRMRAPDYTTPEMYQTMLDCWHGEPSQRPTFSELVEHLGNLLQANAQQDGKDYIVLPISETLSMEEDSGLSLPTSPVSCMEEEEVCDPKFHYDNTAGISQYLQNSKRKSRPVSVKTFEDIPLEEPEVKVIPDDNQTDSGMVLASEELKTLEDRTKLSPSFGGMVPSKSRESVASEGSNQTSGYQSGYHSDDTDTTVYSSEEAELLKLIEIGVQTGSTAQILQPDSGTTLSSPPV
T4 sequence (P23443 whole entry): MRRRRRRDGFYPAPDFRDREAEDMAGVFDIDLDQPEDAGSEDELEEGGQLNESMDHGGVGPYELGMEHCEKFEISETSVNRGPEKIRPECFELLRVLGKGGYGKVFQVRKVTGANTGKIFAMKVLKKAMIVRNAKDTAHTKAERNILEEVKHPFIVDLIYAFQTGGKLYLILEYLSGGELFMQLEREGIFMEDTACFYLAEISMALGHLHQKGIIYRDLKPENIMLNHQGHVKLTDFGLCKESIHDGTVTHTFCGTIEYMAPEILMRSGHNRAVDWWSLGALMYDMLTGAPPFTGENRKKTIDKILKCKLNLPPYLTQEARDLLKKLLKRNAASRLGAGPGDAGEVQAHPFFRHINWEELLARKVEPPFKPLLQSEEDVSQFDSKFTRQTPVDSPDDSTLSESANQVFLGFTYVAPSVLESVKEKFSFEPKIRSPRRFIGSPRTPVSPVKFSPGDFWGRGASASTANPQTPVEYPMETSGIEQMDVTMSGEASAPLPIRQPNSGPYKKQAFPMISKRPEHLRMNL
T3 sequence (P49841 whole entry): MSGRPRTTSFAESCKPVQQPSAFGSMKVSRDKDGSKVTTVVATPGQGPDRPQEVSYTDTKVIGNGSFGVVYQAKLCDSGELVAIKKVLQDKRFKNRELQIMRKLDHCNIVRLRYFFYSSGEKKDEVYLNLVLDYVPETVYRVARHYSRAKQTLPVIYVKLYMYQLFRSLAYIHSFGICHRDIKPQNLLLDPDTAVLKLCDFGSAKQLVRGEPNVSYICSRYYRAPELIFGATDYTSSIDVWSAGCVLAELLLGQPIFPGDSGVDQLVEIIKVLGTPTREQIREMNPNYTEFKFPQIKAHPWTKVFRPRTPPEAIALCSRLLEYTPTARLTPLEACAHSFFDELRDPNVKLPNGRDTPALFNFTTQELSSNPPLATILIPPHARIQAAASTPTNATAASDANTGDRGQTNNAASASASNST

Structure (SMILES)	hKDR LANCE IC50/EC50 (hKDR) [µM]	hJAK2 LANCE IC50/EC50 (hJAK2) [µM]	Hela CellCycMod PI 2N IC50/EC50 (HeLa cells) [µM]	Hela CellCycMod PI S Phase IC50/EC50 (HeLa cells) [µM]	Hela CellCycMod PI 4N IC50/EC50 (HeLa cells) [µM]	Hela CellCycMod PI MI IC50/EC50 (HeLa cells) [µM]	Hela CellCycMod PI Cell Number IC50/EC50 (HeLa cells) [µM]	WntCondMedia_Alk Phos C2C12 IC50/EC50 [1] [µM]	hGSK3b LANCE IC50/EC50 (hGSK3b) [µM]	hp70S6K1 LANCE IC50/EC50 (hp70S6K1 (RPS6KB1)) [µM]	VEGF_ADSC\ECFC Angio CD31 TubeArea IC50/EC50 [2] [µM]	hFLT3 LANCE IC50/EC50 (hFLT3) [µM]	VEGF_ADSC\ECFC Angio Hoechst NucArea IC50/EC50 [3] [µM]	WntCondMedia_bCatenin C2C12 IC50/EC50 [4] [µM]
C=C(C)[C@H]1Cc2c(ccc3c2O[C@@H]2COc4cc(OC)c(OC)cc4[C@@H]2C3=O)O1 [NCGC00017358-15]	> 20	> 20	0.3111	> 10	0.3108	0.2229	0.1532	0.2539	> 20	> 20	0.0257	> 20	> 10	2.9875
CCCOc1ccc2nc(NC(=O)OC)[nH]c2c1 [NCGC00018238-09]	> 20	> 20	0.0622	–	0.0567	0.0775	0.0467	0.0881	> 20	> 20	0.3276	> 20	> 10	0.3653
CC(=O)[C@]1(O)Cc2c(O)c3c(c(O)c2[C@@H](O[C@H]2C[C@H](N)[C@H](O)[C@H](C)O2)C1)C(=O)c1ccccc1C3=O [NCGC00093976-08]	> 20	> 20	0.0111	> 10	> 10	0.6593	0.0142	0.5039	> 20	> 20	0.0208	> 20	0.5381	0.1001
CCCCC1C(=O)N(c2ccccc2)N(c2ccc(O)cc2)C1=O (stereo not shown) [NCGC00094748-07]	> 20	> 20	> 10	> 10	> 10	> 10	1.6628	4.9189	> 20	> 20	3.2937	> 20	8.826	> 20
CCCCCCNC(=O)n1cc(F)c(=O)[nH]c1=O [NCGC00095165-07]	> 20	> 20	> 10	–	> 10	> 10	> 10	5.5533	> 20	> 20	4.486	> 20	> 10	4.9829
[O-][n+]1ccccc1SSc1cccc[n+]1[O-] [NCGC00164493-02]	> 20	> 20	> 10	> 10	> 10	2.2317	0.8425	0.1306	> 20	> 20	0.719	> 20	1.7865	0.9914
